Source: a compilation of properties of binary mixtures (doi:10.1016/j.molliq.2011.09.019)

Assay: xn = mol fraction of the nth substance listed
Settings: 101 kPa

CS(C)=O + CC(=O)[O-].CC[NH2+]CC
speed of sound (298.15 K, x1 = 1): 1496 m/s
viscosity (298.15 K, x1 = 1): 1.99 mPa·s
speed of sound (303.15 K, x1 = 1): 1472 m/s
viscosity (303.15 K, x1 = 1): 1.79 mPa·s
speed of sound (308.15 K, x1 = 1): 1460 m/s
viscosity (308.15 K, x1 = 1): 1.65 mPa·s

CC(=O)[O-].CC[NH2+]CC + CS(C)=O
speed of sound (298.15 K, x1 = 0.0144): 1500 m/s
viscosity (298.15 K, x1 = 0.0144): 2.24 mPa·s
speed of sound (298.15 K, x2 = 0): 1608 m/s
viscosity (298.15 K, x2 = 0): 16.36 mPa·s
speed of sound (298.15 K, x2 = 0.0253): 1606 m/s
viscosity (298.15 K, x2 = 0.0253): 16.01 mPa·s
speed of sound (298.15 K, x2 = 0.0627): 1604 m/s
viscosity (298.15 K, x2 = 0.0627): 15.5 mPa·s
speed of sound (298.15 K, x2 = 0.1132): 1601 m/s
viscosity (298.15 K, x2 = 0.1132): 14.83 mPa·s
speed of sound (298.15 K, x2 = 0.1535): 1599 m/s
viscosity (298.15 K, x2 = 0.1535): 14.29 mPa·s
speed of sound (298.15 K, x2 = 0.2458): 1597 m/s
viscosity (298.15 K, x2 = 0.2458): 13.11 mPa·s
speed of sound (298.15 K, x2 = 0.3244): 1596 m/s
viscosity (298.15 K, x2 = 0.3244): 12.13 mPa·s
speed of sound (298.15 K, x2 = 0.3701): 1595 m/s
viscosity (298.15 K, x2 = 0.3701): 11.56 mPa·s
speed of sound (298.15 K, x2 = 0.4864): 1593 m/s
viscosity (298.15 K, x2 = 0.4864): 10.09 mPa·s
speed of sound (298.15 K, x2 = 0.7253): 1572 m/s
viscosity (298.15 K, x2 = 0.7253): 6.74 mPa·s
speed of sound (298.15 K, x2 = 0.8406): 1546 m/s
viscosity (298.15 K, x2 = 0.8406): 4.91 mPa·s
speed of sound (298.15 K, x2 = 0.8923): 1532 m/s
viscosity (298.15 K, x2 = 0.8923): 3.98 mPa·s
speed of sound (298.15 K, x2 = 0.9248): 1522 m/s
viscosity (298.15 K, x2 = 0.9248): 3.39 mPa·s
speed of sound (298.15 K, x2 = 0.956): 1513 m/s
viscosity (298.15 K, x2 = 0.956): 2.81 mPa·s
speed of sound (303.15 K, x1 = 0.0144): 1478 m/s
viscosity (303.15 K, x1 = 0.0144): 2.04 mPa·s
speed of sound (303.15 K, x2 = 0): 1604 m/s
viscosity (303.15 K, x2 = 0): 13.64 mPa·s
speed of sound (303.15 K, x2 = 0.0627): 1599 m/s
viscosity (303.15 K, x2 = 0.0627): 12.96 mPa·s
speed of sound (303.15 K, x2 = 0.1132): 1597 m/s
viscosity (303.15 K, x2 = 0.1132): 12.44 mPa·s
speed of sound (303.15 K, x2 = 0.1535): 1595 m/s
viscosity (303.15 K, x2 = 0.1535): 12.02 mPa·s
speed of sound (303.15 K, x2 = 0.2023): 1594 m/s
viscosity (303.15 K, x2 = 0.2023): 11.54 mPa·s
speed of sound (303.15 K, x2 = 0.2458): 1593 m/s
viscosity (303.15 K, x2 = 0.2458): 11.1 mPa·s
speed of sound (303.15 K, x2 = 0.2814): 1592 m/s
viscosity (303.15 K, x2 = 0.2814): 10.73 mPa·s
speed of sound (303.15 K, x2 = 0.3244): 1591 m/s
viscosity (303.15 K, x2 = 0.3244): 10.28 mPa·s
speed of sound (303.15 K, x2 = 0.3701): 1590 m/s
viscosity (303.15 K, x2 = 0.3701): 9.82 mPa·s
speed of sound (303.15 K, x2 = 0.4864): 1582 m/s
viscosity (303.15 K, x2 = 0.4864): 8.64 mPa·s
speed of sound (303.15 K, x2 = 0.5897): 1572 m/s
viscosity (303.15 K, x2 = 0.5897): 7.51 mPa·s
speed of sound (303.15 K, x2 = 0.66): 1564 m/s
viscosity (303.15 K, x2 = 0.66): 6.72 mPa·s
speed of sound (303.15 K, x2 = 0.7851): 1540 m/s
viscosity (303.15 K, x2 = 0.7851): 5.17 mPa·s
speed of sound (303.15 K, x2 = 0.8923): 1512 m/s
viscosity (303.15 K, x2 = 0.8923): 3.67 mPa·s
speed of sound (303.15 K, x2 = 0.956): 1491 m/s
viscosity (303.15 K, x2 = 0.956): 2.61 mPa·s
speed of sound (303.15 K, x2 = 0.971): 1485 m/s
viscosity (303.15 K, x2 = 0.971): 2.32 mPa·s
speed of sound (308.15 K, x1 = 0.0144): 1469 m/s
viscosity (308.15 K, x1 = 0.0144): 1.9 mPa·s
speed of sound (308.15 K, x2 = 0): 1599 m/s
viscosity (308.15 K, x2 = 0): 11.83 mPa·s
speed of sound (308.15 K, x2 = 0.0253): 1594 m/s
viscosity (308.15 K, x2 = 0.0253): 11.6 mPa·s
speed of sound (308.15 K, x2 = 0.0627): 1594 m/s
viscosity (308.15 K, x2 = 0.0627): 11.27 mPa·s
speed of sound (308.15 K, x2 = 0.1132): 1592 m/s
viscosity (308.15 K, x2 = 0.1132): 10.86 mPa·s
speed of sound (308.15 K, x2 = 0.2023): 1589 m/s
viscosity (308.15 K, x2 = 0.2023): 10.14 mPa·s
speed of sound (308.15 K, x2 = 0.2458): 1588 m/s
viscosity (308.15 K, x2 = 0.2458): 9.76 mPa·s
speed of sound (308.15 K, x2 = 0.3244): 1584 m/s
viscosity (308.15 K, x2 = 0.3244): 9.1 mPa·s
speed of sound (308.15 K, x2 = 0.3701): 1582 m/s
viscosity (308.15 K, x2 = 0.3701): 8.7 mPa·s
speed of sound (308.15 K, x2 = 0.4864): 1574 m/s
viscosity (308.15 K, x2 = 0.4864): 7.69 mPa·s
speed of sound (308.15 K, x2 = 0.5897): 1562 m/s
viscosity (308.15 K, x2 = 0.5897): 6.74 mPa·s
speed of sound (308.15 K, x2 = 0.66): 1554 m/s
viscosity (308.15 K, x2 = 0.66): 6.08 mPa·s
speed of sound (308.15 K, x2 = 0.7253): 1544 m/s
viscosity (308.15 K, x2 = 0.7253): 5.4 mPa·s
speed of sound (308.15 K, x2 = 0.7851): 1530 m/s
viscosity (308.15 K, x2 = 0.7851): 4.77 mPa·s
speed of sound (308.15 K, x2 = 0.8406): 1516 m/s
viscosity (308.15 K, x2 = 0.8406): 4.11 mPa·s
speed of sound (308.15 K, x2 = 0.8923): 1502 m/s
viscosity (308.15 K, x2 = 0.8923): 3.45 mPa·s
speed of sound (308.15 K, x2 = 0.9248): 1490 m/s
viscosity (308.15 K, x2 = 0.9248): 2.95 mPa·s
speed of sound (308.15 K, x2 = 0.956): 1480 m/s
viscosity (308.15 K, x2 = 0.956): 2.48 mPa·s
speed of sound (308.15 K, x2 = 0.971): 1474 m/s
viscosity (308.15 K, x2 = 0.971): 2.18 mPa·s
